Data on nine molecules can be found in patent US9365522B2, “Pyrazole amide derivative” (AMGEN INC., priority 2015, dated 2016).

The assay addresses T1, human RORγ-LBD (Homo sapiens, UniProt P51449).
T1 construct: made in house; host or cells: E. coli (BL-21)
T1 sequence (P51449 262-518): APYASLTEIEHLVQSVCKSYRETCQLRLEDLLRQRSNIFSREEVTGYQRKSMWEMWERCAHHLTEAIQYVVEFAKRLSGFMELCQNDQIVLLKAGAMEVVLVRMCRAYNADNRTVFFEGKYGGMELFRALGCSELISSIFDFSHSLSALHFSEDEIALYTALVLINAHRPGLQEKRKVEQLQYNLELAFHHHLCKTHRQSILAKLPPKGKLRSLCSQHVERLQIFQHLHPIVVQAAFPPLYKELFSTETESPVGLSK
Put plainly: ROR gamma coactivator peptide recruitment Alphascreen assay (RORγ-LBD binding to GRIP1 coactivator peptide). The class given is biochemical. Particulars: 5 nM human RORγ-LBD, 30 nM 7-β-hydroxycholesterol, 50 nM biotinylated GRIP1 coactivator peptide, overnight incubation at room temperature; read-out: result (pIC50, RORγ coactivator peptide recruitment Alphascreen assay) (converted). A digest of the protocol: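 Alphascreen proximity read-out after overnight room-temperature incubation, yielding pIC50 from 1-in-2 compound series (2.5% DMSO final). Mixture: 50 nM biotin-GRIP1 peptide, 30 nM 7-β-hydroxycholesterol agonist, 5 nM recombinant 6×His:Flag human RORγ-LBD (aa 262-518), 50 mM HEPES pH 7.4.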
A general note: Alpha assays give light when donor and acceptor beads are brought close together.
On to `C[C@]1(CN(CCc2c(Cl)cncc2Cl)C(=O)c2cnn([C@H]3CC[C@](C)(C(=O)O)CC3)c2C(F)(F)F)CCCO1` [Example 681, trans-4-(4-((2-(3,5-dichloro-4-pyridinyl)ethyl)(((2R)-2-methyltetrahydro-2-furanyl)methyl)carbamoyl)-5-(trifluoromethyl)-1H-pyrazol-1-yl)-1-methylcyclohexanecarboxylic acid], for which the IC50 is 9.55 nM. In the case of `C[C@@]1(CN(CCc2c(Cl)cncc2Cl)C(=O)c2cnn([C@H]3CC[C@](C)(C(=O)O)CC3)c2C(F)(F)F)CCCO1` [Example 682, trans-4-(4-((2-(3,5-dichloro-4-pyridinyl)ethyl)(((2S)-2-methyltetrahydro-2-furanyl)methyl)carbamoyl)-5-(trifluoromethyl)-1H-pyrazol-1-yl)-1-methylcyclohexanecarboxylic acid], the IC50 was 50.1 nM. With `C[C@@H]1C[C@H](n2ncc(C(=O)N(CC(=O)c3c(Cl)cccc3Cl)CC3CC(C)(C)C3)c2C(F)(F)F)CC[C@@H]1C(=O)O` [Example 683, (1S,2R,4R)-4-(4-((2-(2,6-dichlorophenyl)-2-oxoethyl)((3,3-dimethylcyclobutyl)methyl)carbamoyl)-5-(trifluoromethyl)-1H-pyrazol-1-yl)-2-methylcyclohexanecarboxylic acid], the IC50 was 8.91 nM. The same measure for `C[C@H]1C[C@@H](n2ncc(C(=O)N(CC(=O)c3c(Cl)cccc3Cl)CC3CC(C)(C)C3)c2C(F)(F)F)CC[C@H]1C(=O)O` [Example 684, (1R,2S,4S)-4-(4-((2-(2,6-dichlorophenyl)-2-oxoethyl)((3,3-dimethylcyclobutyl)methyl)carbamoyl)-5-(trifluoromethyl)-1H-pyrazol-1-yl)-2-methylcyclohexanecarboxylic acid]: 13.8 nM; for `CC1(C)C[C@H](CN(CC(=O)c2c(Cl)cncc2Cl)C(=O)c2cnn([C@H]3CC[C@](C)(C(=O)O)CC3)c2C(F)(F)F)O1` [Example 685, trans-4-(4-((2-(3,5-dichloro-4-pyridinyl)-2-oxoethyl)(((2R)-4,4-dimethyl-2-oxetanyl)methyl)carbamoyl)-5-(trifluoromethyl)-1H-pyrazol-1-yl)-1-methylcyclohexanecarboxylic acid]: 97.7 nM. With `CC1(C)C[C@@H](CN(CC(=O)c2c(Cl)cncc2Cl)C(=O)c2cnn([C@H]3CC[C@](C)(C(=O)O)CC3)c2C(F)(F)F)O1` [Example 686, trans-4-(4-((2-(3,5-dichloro-4-pyridinyl)-2-oxoethyl)(((2S)-4,4-dimethyl-2-oxetanyl)methyl)carbamoyl)-5-(trifluoromethyl)-1H-pyrazol-1-yl)-1-methylcyclohexanecarboxylic acid] the figure was 91.2 nM. Regarding `Cc1cc(Cl)c(C(=O)CN(CC(C)(C)C)C(=O)c2cnn([C@H]3CC[C@](C)(C(=O)O)CC3)c2C(F)(F)F)c(Cl)n1` [Example 687, trans-4-(4-((2-(2,4-dichloro-6-methyl-3-pyridinyl)-2-oxoethyl)(2,2-dimethylpropyl)carbamoyl)-5-(trifluoromethyl)-1H-pyrazol-1-yl)-1-methylcyclohexanecarboxylic acid], the IC50 is 14.8 nM. The same measure for `CC1(C)C[C@H](Cc2c(Cl)cncc2Cl)N(C(=O)c2cnn([C@H]3CC[C@](C)(C(=O)O)CC3)c2C(F)(F)F)C1` [Example 688]: 110 nM; for `Cc1cc(Cl)c(C(=O)CN(C(=O)c2cnn([C@H]3CC[C@](C)(C(=O)O)CC3)c2C(F)(F)F)[C@H]2C[C@@H](C(C)(C)C)C2)c(Cl)c1` [Example 689, trans-4-(4-((2-(2,6-dichloro-4-methylphenyl)-2-oxoethyl)(cis-3-(2-methyl-2-propanyl)cyclobutyl)carbamoyl)-5-(trifluoromethyl)-1H-pyrazol-1-yl)-1-methylcyclohexanecarboxylic acid]: 4.17 nM.
